Test results from patent US12037324B2, “Biarylmethyl heterocycles” (Université de Montréal, priority 2016, dated 2024).

Legend:
[1] = target: T1, AGTR1 (Homo sapiens, UniProt P30556); assay: DiscoveRx β-arrestin2 recruitment assay (enzyme complementation, Pathunter CHO-K1 AGTR1 β-arrestin cell line); format: cell-based; conditions: DiscoveRx β-arrestin2 recruitment; for DiscoveRx β-arrestin2 Ymax (%): maximal response
T1 construct: host or cells: Pathunter CHO-K1 AGTR1 β-arrestin cell line (CHO-K1)
T1 sequence (P30556 1-359): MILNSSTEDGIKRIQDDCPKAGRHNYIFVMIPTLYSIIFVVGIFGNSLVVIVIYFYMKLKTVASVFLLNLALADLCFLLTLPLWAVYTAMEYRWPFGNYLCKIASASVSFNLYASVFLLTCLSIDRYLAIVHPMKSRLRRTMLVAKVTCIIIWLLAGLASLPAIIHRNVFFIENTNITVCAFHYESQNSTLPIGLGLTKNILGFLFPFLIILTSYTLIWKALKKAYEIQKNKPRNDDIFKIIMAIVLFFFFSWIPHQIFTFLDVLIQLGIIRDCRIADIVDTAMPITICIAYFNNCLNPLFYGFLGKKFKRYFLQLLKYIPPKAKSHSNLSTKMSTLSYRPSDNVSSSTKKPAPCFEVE
Procedure, shortened: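 CHO-K1 cells expressing AGTR1 with β-arrestin2 enzyme-complementation reporter, plated 14-16 h ahead in 1% serum medium, then exposed to compounds for 90 min at 37° C. Chemiluminescence read after 1 h detection. EC50 (agonist) or IC50 (antagonist) from 4-parameter logistic fit; activity as percentage of All maximal effect.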

[2] = target: T1, AGTR1; assay: DiscoveRx IP1 accumulation assay (HTRF), agonist mode, Pathunter CHO-K1 AGTR1 β-arrestin cell line; format: cell-based; conditions: for EC50: read-out: IP-1 EC50
Procedure, shortened: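 Agonist mode in CHO-K1 AGTR1 β-arrestin cells plated 14-16 h before; compounds at varying concentrations for 90 min at 37° C, IP1 accumulation read by HTRF (D2-conjugate and anti-IP1 cryptate, 20 min room temperature). EC50 from 4-parameter logistic fit; activity given as percentage of maximal AII effect.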

[3] = target: T2, hAT1R (Homo sapiens, UniProt P30556); assay: BRET β-arrestin2 biosensor assay, higher receptor expression (hAT1R 5 ng/well), HEK293 cells; format: cell-based; conditions: for EC50: High AT1R Expression
T2 sequence (P30556 1-359): T1 sequence (P30556 1-359)

[4] = target: T2, hAT1R; assay: cell-based; conditions: section of the 42nd table ending at r951, example numbering restarts after the DiscoveRx section; read-out: β-arrestin2 EC50
[5] = target: T2, hAT1R; assay: cell-based; conditions: agonist mode; for EC50: read-out: BRET P63 EC50
[6] = target: T2, hAT1R; assay: BRET Gq biosensor assay, agonist response, HEK293 cells; format: cell-based; conditions: section of the 42nd table directly before the BRET P63 section
Experimental: BRET β-arrestin2 and Gq Activation Assays
In another aspect of the invention, association of the ATIR with signaling proteins is assessed using bioluminescence resonance energy transfer assays (Stephane Angers, Ali Salahpour et al. 2002). This technology measures the association between bioluminescent and fluorescent protein tags.
Several of the plasmid constructs used in BRET experiments were previously described. Briefly, the coding sequence of β-arrestin2 was fused to Renilla luciferase II to generate β-arrestin2-Rluc (Quoyer, Janz et al. 2013). The membrane targeting motif from K-Ras, CAAX motif (GKKKKKKSKTKCVIM), was fused to Renilla GFP to create rGFP-CAAX plasmid (Namkung Y et al., Nat Commun (2016) 7, 12178). The Renilla luciferase II was inserted in the Gaq protein to generate Gaq-Rluc (Breton, Sauvageau et al. 2010). The Gγ1 protein was tagged with GFP10 to obtain GFP-Gyl, using the same strategy described previously for GFP-Gy2 (Gales, Rebois et al. 2005). The Gaq binding domain of the p63RhoGEF protein (amino acids 295-502) was fused to Renilla luciferase II to create P63-Rluc. Finally, the hAT1R plasmid construct encoding the receptor was generated by optimizing the coding sequence of human angiotensin II receptor (GeneOptimizer from ThermoFisher), and adding an artificial cleavable signal peptide from bovine prolactin ([…]) in N-terminus of the receptor to increase cell surface expression.
Gq Biosensor Assay HEK293 cells were cultured in DMEM supplemented with Penicillin-Streptomycin and 10% fetal bovine serum. Two days before the BRET experiment, HEK293 cells were transfected with hAT1R expression plasmid (200 ng/well) as well as Gaq-Rluc (100 ng/well), Gβ1 (375 ng/well) and GFP-Gγ1 (625 ng/well), using linear polyethylenimine 25 kDa (PEI) at a PEI:DNA ratio of 3:1. Transfected cells were directly seeded in 96-well plates, at a density of 35 000 cells per well, and maintained in culture for the next 48 h.
BRET experiments were carried out subsequently using the following procedures: cells were washed once with Tyrode's buffer (137 mM NaCl, 1 mM CaCl2, 0.9 mM KCl, […], 3.6 mM NaH2PO4, 5.5 mM glucose, 12 mM NaHCO3, and 25 mM HEPES, pH 7.4) and 90 μl of Tyrode's buffer was added to each well. Cells were equilibrated in their new buffer at room temperature for at least 30 minutes. Following the equilibration period, the coelenterazine substrate was first added to the cells, 10 μl per well of a 10×solution (prolume purple coelenterazine at a final concentration of 2 μM), immediately followed by compound addition using the HP D300 digital dispenser from Tecan (10 singlicate concentrations). Cells were incubated for 5 min at room temperature and BRET readings were then collected using a Synergy Neo Multi-Mode reader from BioTek with BRET2 filters 410/515, to record agonist response. […] A second reading was collected 5 min after this second addition, using the Synergy Neo Multi-Mode reader from BioTek with BRET2 filters 410/515, to record antagonist response. The BRET signal was determined by calculating the ratio of the light emitted by GFP (515 nm) over the light emitted by the Rluc (410 nm). To analyze agonist response, BRET signal values were converted into percentage of activation using the non-stimulated control as 0% and AngII maximal response as 100%. Sigmoidal concentration-response curves were generated with those normalized values using a 4-parameter logistic equation (IDBS ActivityBase software), to determine EC50 of the different compounds. In the case of antagonist response analysis, BRET signal values were converted into percentage of inhibition using the fixed dose of AngII (corresponding to the EC50) as 0% and non-stimulated control as 100%. Sigmoidal concentration-response curves were generated with those normalized values using a 4-parameter logistic equation (IDBS ActivityBase software), to determine IC50 of the different compounds.

Structure (SMILES) | EC50 [1] | DiscoveRx β-arrestin2 Ymax (%) [1] | IP-1 Ymax (%) [2] | EC50 [2] | BRET β-Arrestin2 High AT1R Expression Ymax (%) [3] | EC50 [3] | EC50 [4] | BRET P63 Ymax [5] | EC50 [5] | EC50 [6]
CCc1nc2c(C)cc(C)nc2n1Cc1ccc(-c2cc(-c3cn(CC4CC4)nn3)ccc2-c2nnn[nH]2)cc1 [Example 237] | 0.0553 µM | 62.3% | 13.7% | 0.0797 µM | 84.4% | 0.0163 µM | 0.112 µM | 21.1% | 0.0605 µM | 
CCc1nc2c(C)cc(C)nc2n1Cc1ccc(-c2cc(-c3ccccc3)ccc2-c2nsc(=O)[nH]2)cc1 [Example 245] | 0.115 µM | 75.5% | 12.7% | 0.0894 µM | 88.8% | 0.0049 µM | 0.0241 µM | 23.3% | 0.0272 µM | 
CCc1nc2c(C)cc(C)nc2n1Cc1ccc(-c2cc(Oc3ccccn3)ccc2-c2nnn[nH]2)cc1 [Example 247, 2-Ethyl-5,7-dimethyl-3-((5′-(pyridin-2-yloxy)-2′-(1H-tetrazol-5-yl)-[1,1′-biphenyl]-4-yl)methyl)-3H-imidazo[4,5-b]pyridine] | 0.0069 µM | 30.8% |  | > 100 µM | 74.4% | 0.0138 µM | 0.0227 µM |  | > 10 µM | 
CCc1nc2c(C)cc(C)nc2n1Cc1ccc(-c2cc(Oc3cc(C)ccn3)ccc2-c2nn[nH]n2)cc1 [Example 250] | 0.023 µM | 43.9% | 28.9% | 0.0505 µM | 79.8% | 0.0038 µM | 0.011 µM | 14.1% | 0.0093 µM | 
CCc1nc2c(C)cc(C)nc2n1Cc1ccc(-c2cc(Oc3cc(Cl)ccn3)ccc2-c2nn[nH]n2)cc1 [Example 251] | 0.0336 µM | 20.2% | 10.9% | 0.182 µM | 57.2% | 0.0106 µM | 0.0082 µM | 6.7% | 0.0111 µM | 
CCc1nc2c(C)cc(C)nc2n1Cc1ccc(-c2cc(Oc3ncccc3F)ccc2-c2nn[nH]n2)cc1 [Example 253] | 0.0312 µM | 37.2% | 18.7% | 0.133 µM | 85.3% | 0.0179 µM | 0.046 µM | 12.6% | 0.0383 µM | 
CCc1nc2c(C)cc(C)nc2n1Cc1ccc(-c2cc(Oc3cc(F)ccn3)ccc2-c2nn[nH]n2)cc1 [Example 254] | 0.0358 µM | 26.9% | 30.0% | 0.177 µM | 75.6% | 0.02 µM | 0.0591 µM | 7.1% | 0.0399 µM | 
CCc1nc2c(C)cc(C)nc2n1Cc1ccc(-c2cc(Oc3ncccc3Cl)ccc2-c2nn[nH]n2)cc1 [Example 255] | 0.123 µM | 26.3% | 7.8% | 0.471 µM | 80.2% | 0.0243 µM | 0.0878 µM | 6.0% | 0.0225 µM | 
CCc1nc2c(C)cc(C)nc2n1Cc1ccc(-c2cc(Oc3cccnc3)ccc2-c2nnn[nH]2)cc1 [Example 257] | 0.009 µM | 34.9% | 10.7% | 0.0283 µM | 87.3% | 0.01 µM | 0.0291 µM | 10.8% | 0.0237 µM | 
CCc1nc2c(C)cc(C)nc2n1Cc1ccc(-c2cc(Oc3cncnc3)ccc2-c2nnn[nH]2)cc1 [Example 258] | 0.0231 µM | 35.2% | 15.1% | 0.0428 µM | 75.7% | 0.0415 µM | 0.0819 µM | 17.5% | 0.14 µM | 
CCc1nc2c(C)cc(C)nc2n1Cc1ccc(-c2cc(Oc3cncc(C)c3)ccc2-c2nn[nH]n2)cc1 [Example 260] | 0.0517 µM | 36.4% | 18.5% | 0.175 µM | 87.9% | 0.0078 µM | 0.0499 µM |  | > 100 µM | 
CCOc1nc2cccc(C(=O)O)c2n1Cc1ccc(-c2cc(-c3ccc(OC)cn3)ccc2-c2noc(=O)[nH]2)cc1 [Example 308] | 0.0291 µM | 51.8% |  |  |  |  |  |  |  | 0.0273 µM
CCOc1nc2cccc(C(=O)O)c2n1Cc1ccc(-c2cc(N3CC(C)(C)c4ccccc43)ccc2C(=O)O)cc1 [Example 319, 1-((2′-carboxy-5′-(3,3-dimethylindolin-1-yl)-[1,1′-biphenyl]-4-yl)methyl)-2-ethoxy-1H-benzo[d]imidazole-7-carboxylic acid] | 0.0711 µM | 49.0% |  |  |  |  |  |  |  | 0.787 µM
CCOc1nc2cccc(C(=O)O)c2n1Cc1ccc(-c2cc(-c3cnc(OC)c(C)c3)ccc2-c2nn[nH]n2)cc1 [Example 328, 2-ethoxy-1-((5′-(6-methoxy-5-methylpyridin-3-yl)-2′-(2H-tetrazol-5-yl)-[1,1′-biphenyl]-4-yl)methyl)-1H-benzo[d]imidazole-7-carboxylic acid] | 0.802 µM | 51.8% |  |  |  |  |  |  |  | 2.62 µM
